The values below come from patent publication US20230203098A1, “HUMAN TRANSFERRIN RECEPTOR BINDING PEPTIDE” (priority 2020, published 2023).

Structures are written as SMILES. *1 amine or outer side, *2 acyl side, *3 side chain or, on linkers, in order; H or OH if unused. Where a SMILES comes first, the peptide text is derived from it. Bridges are numbered along the chain shown (N, C = ends). Side-chain parts run from the residue outwards. [ ]: non-standard residue; d: D form. The star is where a group is joined. PEG12 = NCCOCCOCCOCCOCCOCCOCCOCCOCCOCCOCCOCCOCCC(=O)O; Phe(4-Cl) = N[C@@H](Cc1ccc(Cl)cc1)C(=O)O; Lys(N3) = [N-]=[N+]=NCCCC[C@H](N)C(=O)O; NMeY = CN[C@@H](Cc1ccc(O)cc1)C(=O)O; NMeF = CN[C@@H](Cc1ccccc1)C(=O)O; Piperazinyl(4-Me) = CN1CCN(*)CC1; Ahp(2) = CCCCC[C@H](N)C(=O)O; Chg = N[C@H](C(=O)O)C1CCCCC1; PEG4 = NCCOCCOCCOCCOCCC(=O)O; Aib = CC(C)(N)C(=O)O; CO = O=C([*:1])[*:2]

For the test, the target named is transferrin receptor (hTfR) (Homo sapiens, UniProt P02786). Kind of test: Intermolecular interaction evaluation test between transferrin receptor (hTfR) and peptide by surface plasmon resonance (SPR). The test is classed as binding. The settings on record: binding to hTfR by SPR; Table 2 peptides; read-out: KD value (SPR) class. A digest of the protocol: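 hTfR captured on Ni-NTA chip then amine-coupled; peptides run single-cycle kinetics at 5–100 nM in 10 mM HEPES pH 8.0, 150 mM NaCl, 0.05% Tween 20, 0.1% BSA, 1.0% DMSO. KD from least-squares curve fitting of sensorgrams.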
Sequence of transferrin receptor (hTfR) (P02786 whole entry): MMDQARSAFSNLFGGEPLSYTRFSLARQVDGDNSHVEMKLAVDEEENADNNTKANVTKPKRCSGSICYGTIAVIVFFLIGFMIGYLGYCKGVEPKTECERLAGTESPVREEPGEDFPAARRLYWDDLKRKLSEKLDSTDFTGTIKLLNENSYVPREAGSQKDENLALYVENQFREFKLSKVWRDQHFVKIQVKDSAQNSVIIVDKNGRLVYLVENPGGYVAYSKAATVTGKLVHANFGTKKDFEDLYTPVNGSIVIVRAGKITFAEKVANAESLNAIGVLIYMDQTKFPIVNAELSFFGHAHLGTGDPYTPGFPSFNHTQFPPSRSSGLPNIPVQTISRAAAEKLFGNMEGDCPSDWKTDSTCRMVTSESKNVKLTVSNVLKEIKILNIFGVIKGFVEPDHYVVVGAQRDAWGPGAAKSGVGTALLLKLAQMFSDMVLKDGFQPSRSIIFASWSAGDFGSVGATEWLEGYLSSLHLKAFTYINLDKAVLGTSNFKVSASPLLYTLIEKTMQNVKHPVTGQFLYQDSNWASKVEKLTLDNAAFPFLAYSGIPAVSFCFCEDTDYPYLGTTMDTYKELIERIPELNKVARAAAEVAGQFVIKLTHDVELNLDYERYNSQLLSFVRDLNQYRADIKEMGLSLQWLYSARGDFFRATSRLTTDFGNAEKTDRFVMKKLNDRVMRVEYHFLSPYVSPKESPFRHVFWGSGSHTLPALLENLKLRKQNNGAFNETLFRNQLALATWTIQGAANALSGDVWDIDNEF
In general terms: SPR reads the build-up and loss of mass on a sensor chip optically.
One may read the Kd as a measure of binding affinity in units of concentration. Take `CCCCC[C@@H]1NC(=O)[C@H](CC(N)=O)NC(=O)[C@H](Cc2c[nH]c3ccccc23)NC(=O)[C@H](C(C)C)NC(=O)[C@H](Cc2ccccc2)N(C)C(=O)[C@H](C(C)C)NC(=O)[C@H](C)NC(=O)CSC[C@@H](C(=O)NCC(=O)N[C@@H](CCCCN=[N+]=[N-])C(N)=O)NC(=O)[C@H](Cc2ccc(O)cc2)N(C)C(=O)[C@H](Cc2ccc(O)cc2)NC(=O)[C@H](CCCNC(=N)N)NC(=O)[C@H](CCCNC(=N)N)NC(=O)[C@H]([C@@H](C)CC)NC(=O)[C@H]([C@@H](C)CC)NC(=O)[C@H](Cc2ccc(O)cc2)NC1=O` [compound 276] ({CH2CO}-AV[NMeF]VWN[Ahp(2)]YIIRRY[NMeY]CG[Lys(N3)]-NH2; thioether N-15): the equilibrium dissociation constant (Kd) lay within 100 to 1000 nM.
Turning to `CC[C@H](C)[C@@H]1NC(=O)[C@H](Cc2ccc(O)cc2)NC(=O)[C@H](Cc2ccc(Cl)cc2)NC(=O)[C@H](CC(N)=O)NC(=O)[C@H](Cc2c[nH]c3ccccc23)NC(=O)[C@H](C(C)C)NC(=O)[C@H](Cc2ccccc2)N(C)C(=O)[C@H](C(C)C)NC(=O)[C@H](C)NC(=O)CSC[C@@H](C(=O)NCC(=O)N[C@@H](CCCCN=[N+]=[N-])C(N)=O)NC(=O)[C@H](Cc2ccc(O)cc2)N(C)C(=O)[C@H](Cc2ccc(O)cc2)NC(=O)[C@H](CCCNC(=N)N)NC(=O)[C@H](CCCNC(=N)N)NC(=O)[C@H]([C@@H](C)CC)NC1=O` [compound 277] ({CH2CO}-AV[NMeF]VWN[Phe(4-Cl)]YIIRRY[NMeY]CG[Lys(N3)]-NH2; thioether N-15), the Kd is 100 to 1000 nM.
As for `CC[C@H](C)[C@@H]1NC(=O)[C@H](C2CCCCC2)NC(=O)[C@H](Cc2ccc(O)cc2)NC(=O)[C@H](Cc2ccc(O)cc2)NC(=O)[C@H](CC(N)=O)NC(=O)[C@H](Cc2c[nH]c3ccccc23)NC(=O)[C@H](C(C)C)NC(=O)[C@H](Cc2ccccc2)N(C)C(=O)[C@H](C(C)C)NC(=O)[C@H](C)NC(=O)CSC[C@@H](C(N)=O)NC(=O)[C@H](Cc2ccc(O)cc2)N(C)C(=O)[C@H](Cc2ccc(O)cc2)NC(=O)[C@H](CCCNC(=N)N)NC(=O)[C@H](CCCNC(=N)N)NC1=O` [compound 282], the dissociation constant Kd fell in the range of 1 to 100 nM.
The value for `CC[C@H](C)[C@@H]1NC(=O)[C@H](C2CCCCC2)NC(=O)[C@H](Cc2ccc(O)cc2)NC(=O)[C@H](Cc2ccc(O)cc2)NC(=O)[C@H](CC(N)=O)NC(=O)[C@H](Cc2c[nH]c3ccccc23)NC(=O)[C@H](C(C)C)NC(=O)[C@H](Cc2ccccc2)N(C)C(=O)[C@H](C(C)C)NC(=O)[C@H](C)NC(=O)CSC[C@@H](C(=O)NCCOCCOCCOCCOCCOCCOCCOCCOCCOCCOCCOCCOCCC(N)=O)NC(=O)[C@H](Cc2ccc(O)cc2)N(C)C(=O)[C@H](Cc2ccc(O)cc2)NC(=O)[C@H](CCCNC(=N)N)NC(=O)[C@H](CCCNC(=N)N)NC1=O` [compound 283] ({CH2CO}-AV[NMeF]VWNYY[Chg]IRRY[NMeY]C[PEG12]-NH2; thioether N-15) was 1 to 100 nM; that for `CC[C@H](C)[C@@H]1NC(=O)[C@H](Cc2ccc(O)cc2)NC(=O)[C@H](Cc2ccc(O)cc2)NC(=O)[C@H](CC(N)=O)NC(=O)[C@H](Cc2c[nH]c3ccccc23)NC(=O)[C@H](C(C)C)NC(=O)[C@H](Cc2ccccc2)N(C)C(=O)[C@H](C(C)C)NC(=O)[C@H](C)NC(=O)CSC[C@@H](C(=O)NCCOCCOCCOCCOCCC(N)=O)NC(=O)[C@H](Cc2ccc(O)cc2)N(C)C(=O)[C@H](Cc2ccc(O)cc2)NC(=O)[C@H](CCCCNC(=O)N2CCN(C)CC2)NC(=O)C(C)(C)NC(=O)[C@H]([C@@H](C)CC)NC1=O` [compound 290] ({CH2CO}-AV[NMeF]VWNYYII[Aib]K([CO-Piperazinyl(4-Me)])Y[NMeY]C[PEG4]-NH2; thioether N-15) was greater than 1000 nM.
